Calls of active or inactive are those of the source. No cut-off for these calls is given here.
Assays:
[1] = target: Neurotensin receptor type 1 (Rattus norvegicus) (UniProt P20789); assay: Antagonist activity at rat neurotensin receptor type 1 expressed in CHOK1 cells assessed as inhibition of calcium release at 10 uM by FLIPR assay; assay type: functional, cell-based; settings: CHO-K1
[2] = target: T1, Neurotensin receptor type 2 (Rattus norvegicus) (UniProt Q63384); assay: Agonist activity at rat neurotensin receptor type 2 expressed in CHOK1 cells assessed as increase in calcium release at 10 uM by FLIPR assay; assay type: functional, cell-based; settings: CHO-K1
T1 sequence (whole entry): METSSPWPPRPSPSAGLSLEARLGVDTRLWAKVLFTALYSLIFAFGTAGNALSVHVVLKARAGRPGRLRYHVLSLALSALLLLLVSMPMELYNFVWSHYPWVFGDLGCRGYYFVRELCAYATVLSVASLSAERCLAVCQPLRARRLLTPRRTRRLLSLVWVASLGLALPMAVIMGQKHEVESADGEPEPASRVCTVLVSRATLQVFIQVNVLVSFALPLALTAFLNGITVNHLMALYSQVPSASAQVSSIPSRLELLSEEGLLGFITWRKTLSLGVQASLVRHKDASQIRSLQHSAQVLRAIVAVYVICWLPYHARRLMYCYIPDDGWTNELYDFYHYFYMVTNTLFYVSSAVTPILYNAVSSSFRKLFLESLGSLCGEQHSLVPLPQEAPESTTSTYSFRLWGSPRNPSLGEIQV

[3] = target: Neurotensin receptor type 1 (Rattus norvegicus) (UniProt P20789); assay: Agonist activity at rat neurotensin receptor type 1 expressed in CHOK1 cells assessed as increase in calcium release at 10 uM by FLIPR assay; assay type: functional, cell-based; settings: CHO-K1
[4] = target: T1, Neurotensin receptor type 2 (Rattus norvegicus); assay: Antagonist activity at rat neurotensin receptor type 2 expressed in CHOK1 cells assessed as inhibition of SR142948a-induced calcium release at 10 uM by FLIPR assay; assay type: functional, cell-based; settings: CHO-K1
[5] = target: Neurotensin receptor type 1 (Rattus norvegicus, UniProt P20789); assay: Displacement of [[…]]NT from rat neurotensin receptor type 1 expressed in CHOK1 cells by radioligand binding assay; assay type: cell-based, CHO-K1
Sequence of Neurotensin receptor type 1 (P20789 whole entry): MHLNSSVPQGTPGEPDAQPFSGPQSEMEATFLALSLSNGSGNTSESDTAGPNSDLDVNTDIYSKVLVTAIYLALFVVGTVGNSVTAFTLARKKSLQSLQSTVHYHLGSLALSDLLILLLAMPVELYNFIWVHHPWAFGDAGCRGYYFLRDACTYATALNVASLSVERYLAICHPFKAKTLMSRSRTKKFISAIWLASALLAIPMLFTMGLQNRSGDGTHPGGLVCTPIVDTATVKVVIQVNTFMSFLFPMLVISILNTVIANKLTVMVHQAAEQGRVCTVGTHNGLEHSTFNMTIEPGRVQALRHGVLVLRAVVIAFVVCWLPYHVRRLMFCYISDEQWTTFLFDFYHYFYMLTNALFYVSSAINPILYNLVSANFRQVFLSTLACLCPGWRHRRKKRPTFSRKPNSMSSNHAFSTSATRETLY

[6] = target: T2, Neurotensin receptor type 2 (Rattus norvegicus, UniProt Q63384); assay: Displacement of [[…]]NT from rat neurotensin receptor type 2 expressed in CHOK1 cells by radioligand binding assay; assay type: cell-based, CHO-K1
T2 sequence (Q63384 whole entry): T1 sequence (whole entry)

[7] = target: T2, Neurotensin receptor type 2; assay: Agonist activity at rat neurotensin receptor type 2 expressed in CHOK1 cells assessed as increase in calcium release by FLIPR assay; assay type: functional, cell-based, CHO-K1
[8] = target: T2, Neurotensin receptor type 2; assay: Antagonist activity at rat neurotensin receptor type 2 expressed in CHOK1 cells assessed as inhibition of SR142948a-induced calcium release by FLIPR assay; assay type: functional, cell-based, CHO-K1
[9] = target: Neurotensin receptor type 1 (Rattus norvegicus) (UniProt P20789); assay: Agonist activity at rat neurotensin receptor type 1 expressed in CHOK1 cells assessed as increase in calcium release by FLIPR assay; assay type: functional, cell-based; settings: CHO-K1
[10] = target: T1, Neurotensin receptor type 2 (Rattus norvegicus); assay: Agonist activity at rat neurotensin receptor type 2 expressed in CHOK1 cells assessed as increase in calcium release by FLIPR assay relative to SR142948a; assay type: functional, cell-based; settings: CHO-K1

Sequence of Neurotensin receptor type 1 (Rattus norvegicus) (P20789 whole entry): as above

COc1ccccc1C(=O)N/C(=C\c1ccc2c(c1)OCO2)C(=O)N[C@H](C(=O)O)C(C)C (stereo in doubt)
inhibition [1]: inactive | Activity [2]: inactive | Activity [3]: inactive | inhibition [4]: inactive

Cc1ccc(C(=O)O)cc1NC(=S)NC(=O)C(c1ccccc1)c1ccccc1
inhibition [1]: inactive | Activity [2]: inactive | Activity [3]: inactive | inhibition [4]: inactive

Cc1c(NC(=S)NC(=O)C(c2ccccc2)c2ccccc2)cccc1C(=O)O
inhibition [1]: inactive | Activity [2]: inactive | Activity [3]: inactive | inhibition [4]: inactive

COc1cccc(OC)c1-c1cc(C(=O)NC2(C(=O)O)C3CC4CC(C3)CC2C4)nn1-c1ccc(C(=O)N(C)CCCN(C)C)cc1C(C)C (centres undefined)
Ki [5]: 2 nM | Ki [6]: 7 nM | EC50 [7]: 18 nM

COc1ccc(C(=O)N/C(=C\c2cccc([N+](=O)[O-])c2)C(=O)N[C@@H](CC(C)C)C(=O)O)cc1
inhibition [1]: inactive | Activity [2]: inactive | Activity [3]: inactive | inhibition [4]: inactive

O=C(O)c1cc(Nc2nc(-c3ccccc3)c3cc(Cl)ccc3n2)ccc1O
inhibition [1]: inactive | Activity [2]: inactive | Activity [3]: inactive | inhibition [4]: 20%

COc1cccc(OC)c1-c1nc(C(=O)N[C@H](C(=O)O)C2CCCCC2)nc2ccc(Cl)cc12
IC50 [8]: 1070 nM | Ki [6]: 474 nM | Activity [9]: inactive

COc1cccc(OC)c1-c1nc(C(=O)NC2(C(=O)O)CCCCC2)nc2ccc(Cl)cc12
Ki [6]: 959 nM | Emax [10]: 26% | Activity [9]: inactive | EC50 [7]: 145 nM

COc1ccc(C(=O)O)cc1NC(=S)NC(=O)C(c1ccccc1)c1ccccc1
inhibition [1]: inactive | Activity [2]: inactive | Activity [3]: inactive | inhibition [4]: inactive

O=C(O)c1cccc(NC(=S)NC(=O)C(c2ccccc2)c2ccccc2)c1
inhibition [1]: inactive | Activity [2]: inactive | Activity [3]: inactive | inhibition [4]: inactive

COc1ccc(C(=O)N/C(=C\c2ccccc2)C(=O)N[C@H](C(=O)O)C(C)C)cc1
inhibition [1]: inactive | Activity [2]: inactive | Activity [3]: inactive | inhibition [4]: inactive

O=C1NC(=O)N(c2ccc(C(=O)O)cc2)C(=O)/C1=C/c1c(OCc2ccccc2)ccc2ccccc12
inhibition [1]: inactive | Activity [2]: inactive | Activity [3]: inactive | inhibition [4]: inactive

CC(C)[C@H](NC(=O)/C(=C/c1ccccc1)NC(=O)c1ccccc1)C(=O)O
inhibition [1]: inactive | Activity [2]: inactive | Activity [3]: inactive | inhibition [4]: inactive

O=C(O)c1ccc(NC(=S)NC(=O)C(c2ccccc2)c2ccccc2)cc1Cl
inhibition [1]: inactive | Activity [2]: inactive | Activity [3]: inactive | inhibition [4]: inactive

From ChEMBL document CHEMBL3352457 (Bioorg Med Chem Lett, 2015)
